Reference: the supplement of paper PMC10307832

How the values were obtained:
Assay in all cases: relative viability (nuclei count vs DMSO), 5 days (fraction); higher = more cells survive
Dabrafenib + Vorinostat = compound: CC(C)(C)c1nc(-c2cccc(NS(=O)(=O)c3c(F)cccc3F)c2F)c(-c2ccnc(N)n2)s1 [Dabrafenib] + O=C(CCCCCCC(=O)Nc1ccccc1)NO [Vorinostat] (partner 1 µM)
Method in brief: (§1)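 Lung cancer cell lines in 1536-well plates got either a single drug or a fixed anchor-drug dose together with five library-drug doses (not always all listed) in √10 steps, by pin tool, on the day after seeding. Nuclei were counted after 5 days, and relative viability is the treated-to-vehicle ratio of nuclei counts. Values are medians of duplicate plates.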

VX-702 + Dasatinib = compound: NC(=O)c1ccc(N(C(N)=O)c2c(F)cccc2F)nc1-c1ccc(F)cc1F [VX-702] + Cc1nc(Nc2ncc(C(=O)Nc3c(C)cccc3Cl)s2)cc(N2CCN(CCO)CC2)n1 [Dasatinib] (partner 0.075 µM)
Method in brief: as §1

VX-702 + Decitabine = compound: NC(=O)c1ccc(N(C(N)=O)c2c(F)cccc2F)nc1-c1ccc(F)cc1F [VX-702] + Nc1ncn([C@H]2C[C@H](O)[C@@H](CO)O2)c(=O)n1 [Decitabine] (partner 2 µM)
Method in brief: as §1

VX-702 + Vorinostat = compound: NC(=O)c1ccc(N(C(N)=O)c2c(F)cccc2F)nc1-c1ccc(F)cc1F [VX-702] + O=C(CCCCCCC(=O)Nc1ccccc1)NO [Vorinostat] (partner 1 µM)
Method in brief: as §1

Cell Line | relative viability (Dabrafenib + Vorinostat; first compound 0.003 µM) | relative viability (Dabrafenib + Vorinostat; first compound 0.009487 µM) | relative viability (Dabrafenib + Vorinostat; first compound 0.03 µM) | relative viability (Dabrafenib + Vorinostat; first compound 0.09487 µM) | relative viability (Dabrafenib + Vorinostat; first compound 0.3 µM) | relative viability (VX-702 + Dasatinib; first compound 0.02 µM) | relative viability (VX-702 + Dasatinib; first compound 0.2 µM) | relative viability (VX-702 + Dasatinib; first compound 0.6325 µM) | relative viability (VX-702 + Dasatinib; first compound 2 µM) | relative viability (VX-702 + Decitabine; first compound 0.02 µM) | relative viability (VX-702 + Decitabine; first compound 0.2 µM) | relative viability (VX-702 + Decitabine; first compound 0.6325 µM) | relative viability (VX-702 + Decitabine; first compound 2 µM) | relative viability (VX-702 + Vorinostat; first compound 0.02 µM) | relative viability (VX-702 + Vorinostat; first compound 0.2 µM) | relative viability (VX-702 + Vorinostat; first compound 0.6325 µM) | relative viability (VX-702 + Vorinostat; first compound 2 µM)
NCI-H661 | 0.889 | 0.778 | 0.804 | 0.767 | 0.842 | 0.841 | 0.811 | 0.995 | 1.06 | 0.567 | 0.583 | 0.58 | 0.591 | 0.775 | 0.786 | 0.76 | 0.816
NCI-H727 | 0.538 | 1.27 | – | 0.995 | 1.19 | 0.372 | 0.359 | 0.295 | 0.396 | 0.827 | 0.914 | 0.753 | 0.822 | 1.25 | 1.28 | 1.18 | 1.39
NCI-H838 | 0.693 | 0.752 | 0.713 | 0.711 | 0.759 | 0.348 | 0.285 | 0.304 | 0.339 | 0.455 | 0.471 | 0.429 | 0.534 | 0.737 | 0.702 | 0.751 | 0.787
NCI-H1355 | – | 0.672 | 0.641 | 0.581 | 0.633 | 0.883 | 0.679 | 0.683 | 0.818 | 0.348 | 0.33 | 0.366 | 0.318 | 0.694 | 0.605 | 0.689 | 0.821
NCI-H1395 | – | 0.699 | 0.719 | 0.662 | 0.667 | 0.414 | 0.413 | 0.415 | 0.447 | 0.664 | 0.714 | 0.728 | 0.64 | 0.701 | 0.686 | 0.683 | 0.884
NCI-H1437 | 0.839 | 0.813 | 0.907 | 0.802 | 0.872 | 0.407 | 0.34 | 0.439 | 0.467 | 0.618 | 0.516 | 0.544 | 0.607 | 0.904 | 0.827 | 0.863 | 1.05
NCI-H1650 | 0.547 | 0.528 | 0.711 | 0.608 | 0.659 | 0.385 | 0.346 | 0.334 | 0.265 | 0.477 | 0.422 | 0.44 | 0.46 | 0.479 | 0.624 | 0.776 | 0.583
NCI-H1651 | 0.567 | 0.533 | 0.573 | 0.419 | 0.544 | 0.395 | 0.456 | 0.359 | 0.544 | 0.571 | 0.573 | 0.649 | 0.615 | 0.536 | 0.558 | 0.53 | 0.586
NCI-H1666 | 1.05 | 0.937 | 1.19 | 0.972 | 1.15 | 0.765 | – | 0.876 | 0.641 | 0.655 | 0.691 | 0.751 | 0.536 | 1.07 | 0.989 | 0.993 | 0.979
NCI-H1734 | – | 0.85 | 0.627 | 0.708 | 0.759 | 0.51 | 0.413 | 0.445 | 0.371 | 0.493 | 0.484 | 0.477 | 0.47 | 0.812 | 0.759 | 0.781 | 0.732
NCI-H1755 | 0.849 | 0.726 | 0.558 | 0.771 | 0.728 | 0.44 | 0.432 | 0.367 | 0.415 | 0.699 | 0.732 | 0.703 | 0.797 | 0.929 | 0.748 | 0.731 | 0.877
NCI-H1793 | – | 1.12 | – | 0.877 | 0.873 | 0.412 | 0.392 | 0.382 | 0.366 | 0.545 | – | 0.449 | 0.458 | 0.669 | – | 0.757 | 0.591
NCI-H1915 | 0.544 | 0.576 | 0.414 | 0.219 | 0.206 | 0.328 | 0.282 | 0.281 | 0.327 | 0.275 | 0.284 | 0.258 | 0.268 | 0.578 | 0.513 | 0.492 | 0.548
NCI-H1944 | 0.445 | 0.529 | 0.508 | 0.659 | 0.483 | 0.226 | 0.212 | 0.221 | 0.169 | 0.431 | 0.437 | 0.46 | 0.431 | 0.625 | 0.557 | 0.558 | 0.414
NCI-H1975 | 0.636 | 0.742 | 0.741 | 0.705 | 0.663 | 0.365 | 0.344 | 0.402 | 0.382 | 0.367 | 0.35 | 0.344 | 0.362 | 0.752 | 0.719 | 0.701 | 0.786
NCI-H1993 | 0.753 | 1.35 | 0.735 | 0.631 | 1.09 | 0.512 | 0.611 | 0.615 | 0.59 | 0.529 | 0.603 | 0.54 | 0.578 | 0.661 | 0.754 | 0.588 | 1.03
NCI-H2009 | 0.651 | 0.64 | 0.673 | 0.414 | 0.574 | 0.35 | 0.401 | 0.429 | 0.452 | 0.392 | 0.435 | 0.454 | 0.399 | 0.791 | 0.847 | 0.907 | 1.03

Cell Line | relative viability (Dabrafenib + Vorinostat; first compound 0.003 µM) | relative viability (Dabrafenib + Vorinostat; first compound 0.009487 µM) | relative viability (Dabrafenib + Vorinostat; first compound 0.03 µM) | relative viability (Dabrafenib + Vorinostat; first compound 0.09487 µM) | relative viability (Dabrafenib + Vorinostat; first compound 0.3 µM) | relative viability (VX-702 + Dasatinib; first compound 0.02 µM) | relative viability (VX-702 + Dasatinib; first compound 0.2 µM) | relative viability (VX-702 + Dasatinib; first compound 0.6325 µM) | relative viability (VX-702 + Dasatinib; first compound 2 µM) | relative viability (VX-702 + Decitabine; first compound 0.02 µM) | relative viability (VX-702 + Decitabine; first compound 0.2 µM) | relative viability (VX-702 + Decitabine; first compound 0.6325 µM) | relative viability (VX-702 + Decitabine; first compound 2 µM) | relative viability (VX-702 + Vorinostat; first compound 0.02 µM) | relative viability (VX-702 + Vorinostat; first compound 0.2 µM) | relative viability (VX-702 + Vorinostat; first compound 0.6325 µM) | relative viability (VX-702 + Vorinostat; first compound 2 µM)
NCI-H2023 | 0.716 | 0.717 | 0.733 | 0.559 | 0.6 | 0.534 | 0.724 | 0.576 | 0.662 | 0.23 | 0.219 | 0.211 | 0.231 | 0.615 | 0.736 | 0.679 | 0.938
NCI-H2085 | 0.669 | 1.01 | 0.801 | 0.79 | 0.748 | 0.209 | 0.339 | 0.207 | 0.27 | 0.568 | 0.575 | 0.627 | 0.524 | 0.861 | 0.802 | 0.855 | 0.848
NCI-H2087 | – | 0.8 | 0.779 | 0.594 | 0.809 | 0.953 | 0.856 | 0.959 | 0.967 | 0.288 | 0.242 | 0.254 | 0.294 | 0.673 | 0.797 | 0.662 | 0.958
NCI-H2126 | 0.693 | 0.916 | 0.767 | 0.888 | 0.993 | 0.637 | 0.542 | 0.549 | 0.573 | 0.547 | 0.567 | 0.566 | 0.595 | 0.76 | 0.741 | 0.754 | 0.632
NCI-H2170 | 0.777 | 0.798 | 0.703 | 0.647 | 0.732 | 0.532 | 0.654 | 0.544 | 0.74 | 0.444 | 0.415 | 0.466 | 0.486 | 0.967 | 0.734 | 0.842 | 0.874
NCI-H2342 | 0.551 | 0.702 | 0.664 | 0.696 | 0.721 | 0.327 | 0.335 | 0.348 | 0.329 | 0.788 | 0.821 | 0.697 | 0.754 | 0.717 | 0.956 | 0.832 | 0.867
NCI-H2347 | – | 0.603 | 0.385 | 0.551 | 0.591 | 0.325 | – | 0.277 | 0.294 | 0.643 | 0.606 | 0.683 | 0.639 | 0.561 | 0.594 | 0.454 | 0.591
NCI-H2405 | – | 1 | 0.488 | 0.81 | 0.962 | 0.259 | 0.207 | 0.228 | 0.193 | 0.727 | 0.709 | 0.709 | 0.759 | 1.1 | 0.909 | 0.972 | 1.1
NCI-H3122 | 0.978 | 0.966 | 0.916 | 0.991 | 1.02 | 0.921 | 0.84 | 0.752 | 0.789 | 0.435 | 0.371 | 0.417 | 0.435 | 1.36 | 1.03 | 1.22 | 1.1
PC-3 [JPC-3] | – | 0.981 | 0.713 | 0.771 | 1.12 | 1.03 | 1.05 | 1.07 | 1.06 | 0.804 | 0.888 | 0.888 | 0.853 | 0.929 | 0.773 | 0.908 | 0.886
PC-14 | – | 0.829 | 0.737 | 0.757 | 0.73 | 0.337 | 0.323 | 0.295 | 0.188 | 0.199 | 0.261 | 0.221 | 0.218 | 0.806 | 0.774 | 0.74 | 0.531
RERF-LC-KJ | 0.745 | 0.779 | 0.706 | 0.618 | 0.789 | 0.837 | 0.781 | 0.87 | 0.901 | 0.762 | 0.759 | 0.66 | 0.685 | 0.693 | 0.686 | 0.716 | 0.694
SK-LU-1 | – | 0.716 | 0.692 | 0.605 | 0.651 | 0.222 | 0.177 | 0.196 | 0.206 | 0.625 | 0.61 | 0.653 | 0.702 | 0.9 | 0.716 | 0.767 | 1.04
SK-MES-1 | – | 1.05 | 1.14 | 1.04 | 0.854 | 0.374 | 0.389 | 0.342 | 0.398 | 0.387 | 0.388 | 0.308 | 0.297 | 1.09 | 1.08 | 1.06 | 1.11
SW 1573 | 0.73 | 0.719 | 0.672 | 0.552 | 0.673 | 0.566 | 0.455 | 0.427 | 0.426 | 0.518 | 0.434 | 0.412 | 0.437 | 0.937 | 0.793 | 0.707 | 0.8
UMC-11 | 0.379 | 0.362 | 0.409 | 0.473 | 0.454 | 0.456 | 0.379 | 0.386 | 0.492 | 0.515 | 0.616 | 0.643 | 0.791 | 0.339 | 0.293 | 0.353 | 0.376
